Reference: patent publication US20050048508A1, “Trehalose receptor and method for detecting trehalose with the same” (KABUSHIKI KAISHA HAYASHIBARA SEIBUTSU KAGAKU KENKYUJO, priority 2002, published 2005)

Target: T1, T1R2 and T1R3 without G protein α-subunit (Mus musculus, UniProt Q925D8+Q925I4, E350G/G527D/I706N/P352R/R175Q)
T1 construct: expressed in transfected cells; host or cells: 293 cells, RCB 1637 (human embryonic kidney)
T1 sequence (Q925I4 20-843 R175Q/E350G/P352R/G527D): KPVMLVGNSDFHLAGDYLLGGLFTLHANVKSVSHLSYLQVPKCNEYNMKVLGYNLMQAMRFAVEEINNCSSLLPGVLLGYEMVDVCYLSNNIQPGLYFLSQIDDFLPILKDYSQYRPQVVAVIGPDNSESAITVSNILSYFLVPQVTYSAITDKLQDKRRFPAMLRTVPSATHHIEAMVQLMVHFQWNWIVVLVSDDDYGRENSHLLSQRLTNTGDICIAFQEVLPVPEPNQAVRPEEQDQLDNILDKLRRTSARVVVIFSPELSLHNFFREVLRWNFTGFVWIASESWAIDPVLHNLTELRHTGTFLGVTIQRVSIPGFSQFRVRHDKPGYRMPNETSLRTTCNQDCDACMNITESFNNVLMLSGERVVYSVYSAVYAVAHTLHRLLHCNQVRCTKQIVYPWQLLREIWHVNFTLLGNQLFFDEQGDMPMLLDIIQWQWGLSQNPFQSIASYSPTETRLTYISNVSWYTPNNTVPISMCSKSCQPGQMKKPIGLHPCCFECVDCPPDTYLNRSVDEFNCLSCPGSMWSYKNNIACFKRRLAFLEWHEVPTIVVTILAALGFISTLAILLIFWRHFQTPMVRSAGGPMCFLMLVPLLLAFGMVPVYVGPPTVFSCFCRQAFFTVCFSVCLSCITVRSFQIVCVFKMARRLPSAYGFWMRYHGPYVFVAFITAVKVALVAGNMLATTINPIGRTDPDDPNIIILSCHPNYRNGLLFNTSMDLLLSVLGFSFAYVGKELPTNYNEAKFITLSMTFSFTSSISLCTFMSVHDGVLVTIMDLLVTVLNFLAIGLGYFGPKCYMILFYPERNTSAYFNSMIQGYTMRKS
T1 sequence (Q925D8 21-858 I706N): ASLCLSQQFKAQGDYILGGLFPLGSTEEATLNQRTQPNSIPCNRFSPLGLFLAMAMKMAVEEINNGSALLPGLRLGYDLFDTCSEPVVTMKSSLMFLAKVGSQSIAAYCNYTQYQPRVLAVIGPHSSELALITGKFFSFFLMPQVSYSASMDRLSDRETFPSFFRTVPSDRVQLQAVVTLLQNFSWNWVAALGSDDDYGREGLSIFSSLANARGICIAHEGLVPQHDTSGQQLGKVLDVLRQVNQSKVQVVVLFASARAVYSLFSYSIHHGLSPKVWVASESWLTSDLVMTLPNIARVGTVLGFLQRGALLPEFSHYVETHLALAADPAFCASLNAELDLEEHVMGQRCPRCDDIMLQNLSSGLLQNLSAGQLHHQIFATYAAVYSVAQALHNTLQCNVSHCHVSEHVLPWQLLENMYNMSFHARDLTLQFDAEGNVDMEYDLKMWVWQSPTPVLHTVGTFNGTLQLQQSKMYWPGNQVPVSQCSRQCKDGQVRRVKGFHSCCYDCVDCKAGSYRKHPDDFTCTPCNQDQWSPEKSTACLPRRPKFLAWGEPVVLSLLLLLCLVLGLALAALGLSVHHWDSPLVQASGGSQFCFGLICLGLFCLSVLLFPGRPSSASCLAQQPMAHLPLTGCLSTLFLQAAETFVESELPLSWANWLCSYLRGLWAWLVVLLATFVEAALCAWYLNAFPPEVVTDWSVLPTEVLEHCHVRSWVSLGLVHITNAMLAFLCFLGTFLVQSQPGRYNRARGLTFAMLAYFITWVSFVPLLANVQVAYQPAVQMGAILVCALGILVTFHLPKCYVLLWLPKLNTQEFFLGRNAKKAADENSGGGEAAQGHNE
Experiment: Intracellular calcium ion assay, 293 cells expressing T1R2 and T1R3 without G protein α-subunits
Format: cell-based
Conditions: 293 cells: T1R2 + T1R3, no G protein α-subunit; 0.67 ml of 1 M saccharide solution added to 2 ml cell suspension

| Influx of calcium ion | Compound |
| --- | --- |
| Negative | OC[C@H]1O[C@@](CO)(O[C@H]2O[C@H](CO)[C@@H](O)[C@H](O)[C@H]2O)[C@@H](O)[C@@H]1O [Sucrose, reference compound] |
| Negative | OC[C@H]1O[C@H](O[C@H]2O[C@H](CO)[C@@H](O)[C@H](O)[C@H]2O)[C@H](O)[C@@H](O)[C@@H]1O [Trehalose] |
